Reference: ChEMBL document CHEMBL4800723, “Data for DCP probe BI-1942” (2021)

Assays:
hERG (KCNH2) = hERG (KCNH2) (Homo sapiens, UniProt Q12809); assay: HERG_DOFETILIDE Eurofins SafetyScreen44 (BI); design: mode of action inhibitor; details: probe [3H] Dofetilide, compound concentration 10 uM, read-out: % Ctrl
[1] = target: Delta-type opioid receptor (Homo sapiens) (UniProt P41143); assay: DELTA2/H Eurofins SafetyScreen44 (BI); details: Compound concentration 10.0 uM
[2] = target: MAO-A (amine oxidase [flavin-containing] A) (Rattus norvegicus, UniProt P21396); assay: MAO-A_ANTAG Eurofins SafetyScreen44 (BI); design: mode of action antagonist; scale not given: the % may be the effect or the level left; details: compound concentration 10 uM, read-out: % Ctrl
[3] = target: Matrix metalloproteinase-9 (Homo sapiens) (UniProt P14780); assay: MMP-9 (H) Eurofins SafetyScreen44 (BI); details: Compound concentration 10.0 uM
[4] = target: Matrilysin (Homo sapiens) (UniProt P09237); assay: MMP-7 (H) Eurofins SafetyScreen44 (BI); details: Compound concentration 10.0 uM
[5] = target: Angiotensin-converting enzyme 2 (Homo sapiens) (UniProt Q9BYF1); assay: ACE-2(HU) Eurofins SafetyScreen44 (BI); details: Compound concentration 10.0 uM
[6] = target: Disintegrin and metalloproteinase domain-containing protein 17 (Homo sapiens) (UniProt P78536); assay: TACE Eurofins SafetyScreen44 (BI); details: Compound concentration 10.0 uM
[7] = target: Beta-1 adrenergic receptor (Homo sapiens) (UniProt P08588); assay: BETA1/HUM Eurofins SafetyScreen44 (BI); details: Compound concentration 10.0 uM
[8] = target: 5-hydroxytryptamine receptor 1B (Homo sapiens) (UniProt P28222); assay: 5HT1B(H) Eurofins SafetyScreen44 (BI); details: filed as antagonist, Compound concentration 10.0 uM
[9] = target: Kappa-type opioid receptor (Homo sapiens, UniProt P41145); details: Compound concentration 10.0 uM
[10] = target: 5-hydroxytryptamine receptor 2B (Homo sapiens) (UniProt P41595); details: Compound concentration 10.0 uM
[11] = target: Alpha-1D adrenergic receptor (Homo sapiens) (UniProt P25100); details: Compound concentration 10.0 uM
[12] = target: Neutrophil collagenase (Homo sapiens) (UniProt P22894); assay: MMP-8(H) Eurofins SafetyScreen44 (BI); details: Compound concentration 10.0 uM
Caspase-8 (Homo sapiens) = Caspase-8 (Homo sapiens) (UniProt Q14790); assay: CASPASE8_CE Eurofins SafetyScreen44 (BI); details: Compound concentration 10.0 uM
[13] = target: Human immunodeficiency virus type 1 protease (Human immunodeficiency virus 1) (UniProt Q72874); assay: HIV-1/H Eurofins SafetyScreen44 (BI); details: Compound concentration 10.0 uM
[14] = target: T1, GABA-A receptor; anion channel (Rattus norvegicus) (UniProt O09028+P15431+P18506+P18508+P19969+P20236+P23574+P23576+P28471+P28473+P30191+P62813+P63079+P63138+Q91ZM7+Q9ES14); details: Compound concentration 10.0 uM
[15] = target: Alpha-1B adrenergic receptor (Homo sapiens) (UniProt P35368); details: Compound concentration 10.0 uM
Rattus norvegicus = species on record: Rattus norvegicus; details: Compound concentration 10.0 uM
[16] = target: Muscarinic acetylcholine receptor M3 (Homo sapiens) (UniProt P20309); details: Compound concentration 10.0 uM
[17] = target: Alpha-2A adrenergic receptor (Homo sapiens) (UniProt P08913); assay: ALPHA2A/HU Eurofins SafetyScreen44 (BI); details: Compound concentration 10.0 uM
[18] = target: Cannabinoid receptor 1 (Homo sapiens) (UniProt P21554); assay: CB1(HU)_AGON Eurofins SafetyScreen44 (BI); details: Rattus norvegicus; filed as agonist; Compound concentration 10.0 uM
[19] = target: Histamine H4 receptor (Homo sapiens) (UniProt Q9H3N8); details: Compound concentration 10.0 uM
[20] = target: Neuronal acetylcholine receptor; alpha4/beta2 (Homo sapiens) (UniProt P17787+P43681); assay: N_NEURO_A4B2 Eurofins SafetyScreen44 (BI); type: protein-complex assay; details: filed as agonist, Compound concentration 10.0 uM
[21] = target: T1, GABA-A receptor; anion channel (Rattus norvegicus); assay: BZD/CENTR/R Eurofins SafetyScreen44 (BI); type: protein-complex assay; details: Compound concentration 10.0 uM
[22] = target: Adenosine receptor A2a (Homo sapiens) (UniProt P29274); assay: A2A/H Eurofins SafetyScreen44 (BI); details: filed as antagonist, Compound concentration 10.0 uM
[23] = target: Glutamate NMDA receptor (Rattus norvegicus) (UniProt P35439+Q00959+Q00960+Q00961+Q62645+Q8VHN2+Q9R1M7); assay: NMDA/R Eurofins SafetyScreen44 (BI); type: protein-complex assay; details: Compound concentration 10.0 uM
[24] = target: Alpha-2C adrenergic receptor (Homo sapiens) (UniProt P18825); details: Compound concentration 10.0 uM
[25] = target: Muscarinic acetylcholine receptor M1 (Homo sapiens) (UniProt P11229); assay: M1/H Eurofins SafetyScreen44 (BI); details: Compound concentration 10.0 uM
[26] = target: 5-hydroxytryptamine receptor 1B (Homo sapiens) (UniProt P28222); details: Compound concentration 10.0 uM
[27] = target: Prostaglandin G/H synthase 1 (Homo sapiens) (UniProt P23219); assay: COX-1 Eurofins SafetyScreen44 (BI); details: Compound concentration 10.0 uM
[28] = target: Beta-secretase 1 (Homo sapiens) (UniProt P56817); assay: BACE-1 Eurofins SafetyScreen44 (BI); details: Compound concentration 10.0 uM
Caspase-7 (Homo sapiens) = Caspase-7 (Homo sapiens) (UniProt P55210); assay: CASPASE-7(H) Eurofins SafetyScreen44 (BI); details: Compound concentration 10.0 uM
[29] = target: Proteinase-activated receptor 1 (Homo sapiens) (UniProt P25116); assay: PAR1(H)AGON Eurofins SafetyScreen44 (BI); details: filed as agonist, Compound concentration 10.0 uM
[30] = target: Glucocorticoid receptor (Homo sapiens) (UniProt P04150); assay: GCORTICOID/H Eurofins SafetyScreen44 (BI); details: Compound concentration 10.0 uM
[31] = target: Sodium-dependent serotonin transporter (Homo sapiens) (UniProt P31645); details: Compound concentration 10.0 uM
[32] = target: 5-hydroxytryptamine receptor 6 (Homo sapiens) (UniProt P50406); details: Compound concentration 10.0 uM
5-hydroxytryptamine receptor 6 (Homo sapiens), sequence (P50406 whole entry): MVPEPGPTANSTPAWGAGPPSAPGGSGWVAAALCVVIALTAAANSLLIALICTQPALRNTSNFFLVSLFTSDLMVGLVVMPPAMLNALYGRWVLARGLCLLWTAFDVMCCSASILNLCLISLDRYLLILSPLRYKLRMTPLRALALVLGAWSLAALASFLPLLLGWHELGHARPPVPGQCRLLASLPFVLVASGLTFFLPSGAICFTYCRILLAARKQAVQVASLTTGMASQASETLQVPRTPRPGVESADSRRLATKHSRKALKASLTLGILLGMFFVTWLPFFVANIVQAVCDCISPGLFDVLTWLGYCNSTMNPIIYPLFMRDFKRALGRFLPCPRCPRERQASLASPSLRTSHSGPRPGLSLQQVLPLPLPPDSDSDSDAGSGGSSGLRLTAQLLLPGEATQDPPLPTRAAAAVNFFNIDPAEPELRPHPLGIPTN

5-hydroxytryptamine receptor 1B (Homo sapiens), sequence (P28222 whole entry): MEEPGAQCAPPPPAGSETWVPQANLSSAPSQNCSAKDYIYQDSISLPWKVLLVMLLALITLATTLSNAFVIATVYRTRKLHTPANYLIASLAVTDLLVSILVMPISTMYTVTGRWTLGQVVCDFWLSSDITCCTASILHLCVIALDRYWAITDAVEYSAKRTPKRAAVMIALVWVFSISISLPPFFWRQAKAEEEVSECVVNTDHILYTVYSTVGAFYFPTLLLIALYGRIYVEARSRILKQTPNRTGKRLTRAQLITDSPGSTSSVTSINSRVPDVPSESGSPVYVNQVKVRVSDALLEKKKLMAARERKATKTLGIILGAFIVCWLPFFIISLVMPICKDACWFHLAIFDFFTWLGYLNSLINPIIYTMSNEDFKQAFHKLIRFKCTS
Beta-secretase 1 (Homo sapiens), sequence (P56817 whole entry): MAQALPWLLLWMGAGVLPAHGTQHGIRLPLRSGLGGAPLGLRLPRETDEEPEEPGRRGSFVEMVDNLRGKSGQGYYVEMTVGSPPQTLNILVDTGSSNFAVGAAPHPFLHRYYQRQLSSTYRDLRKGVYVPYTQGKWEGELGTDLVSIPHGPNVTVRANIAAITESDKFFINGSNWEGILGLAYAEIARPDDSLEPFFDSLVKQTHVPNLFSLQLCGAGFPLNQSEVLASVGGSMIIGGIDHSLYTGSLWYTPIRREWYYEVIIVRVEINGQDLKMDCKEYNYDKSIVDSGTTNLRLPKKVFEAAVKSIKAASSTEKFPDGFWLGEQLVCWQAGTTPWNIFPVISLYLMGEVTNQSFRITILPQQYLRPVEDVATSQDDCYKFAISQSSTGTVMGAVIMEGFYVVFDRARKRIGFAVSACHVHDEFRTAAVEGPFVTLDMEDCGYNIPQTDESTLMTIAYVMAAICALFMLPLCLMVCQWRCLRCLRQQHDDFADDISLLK
Alpha-1D adrenergic receptor (Homo sapiens), sequence (P25100 whole entry): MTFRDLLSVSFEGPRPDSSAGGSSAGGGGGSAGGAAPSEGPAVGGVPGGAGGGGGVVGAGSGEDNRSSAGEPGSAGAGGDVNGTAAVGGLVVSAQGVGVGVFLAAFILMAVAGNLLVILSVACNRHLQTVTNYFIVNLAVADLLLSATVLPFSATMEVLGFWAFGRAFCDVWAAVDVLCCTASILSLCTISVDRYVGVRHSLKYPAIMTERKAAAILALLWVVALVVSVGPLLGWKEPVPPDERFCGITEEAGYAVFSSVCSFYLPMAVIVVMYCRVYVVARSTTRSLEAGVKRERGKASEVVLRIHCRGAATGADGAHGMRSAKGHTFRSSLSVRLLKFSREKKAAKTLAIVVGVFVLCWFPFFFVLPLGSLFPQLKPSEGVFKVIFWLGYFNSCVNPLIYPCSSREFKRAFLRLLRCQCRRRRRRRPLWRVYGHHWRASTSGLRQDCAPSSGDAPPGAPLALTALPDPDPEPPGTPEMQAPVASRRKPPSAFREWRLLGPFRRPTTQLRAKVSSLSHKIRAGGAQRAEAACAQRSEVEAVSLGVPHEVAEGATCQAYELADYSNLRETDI
Sodium-dependent serotonin transporter (Homo sapiens), sequence (P31645 whole entry, looked up): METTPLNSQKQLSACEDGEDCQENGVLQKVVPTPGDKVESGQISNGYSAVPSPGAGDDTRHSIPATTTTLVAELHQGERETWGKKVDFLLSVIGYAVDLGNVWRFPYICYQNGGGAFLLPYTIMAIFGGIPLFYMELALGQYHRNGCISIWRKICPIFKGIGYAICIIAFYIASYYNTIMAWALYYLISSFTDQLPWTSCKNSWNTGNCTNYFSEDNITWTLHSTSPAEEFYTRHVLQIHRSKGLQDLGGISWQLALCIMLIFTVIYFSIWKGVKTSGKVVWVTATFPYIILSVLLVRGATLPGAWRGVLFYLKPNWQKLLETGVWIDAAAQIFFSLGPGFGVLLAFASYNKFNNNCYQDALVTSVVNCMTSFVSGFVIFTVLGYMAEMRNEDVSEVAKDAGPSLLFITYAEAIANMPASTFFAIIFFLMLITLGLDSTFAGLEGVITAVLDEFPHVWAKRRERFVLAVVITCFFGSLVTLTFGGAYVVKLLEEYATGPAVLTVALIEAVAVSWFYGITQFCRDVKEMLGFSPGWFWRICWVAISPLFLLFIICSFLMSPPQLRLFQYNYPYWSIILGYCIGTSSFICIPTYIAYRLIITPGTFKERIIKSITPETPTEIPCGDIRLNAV
5-hydroxytryptamine receptor 2B (Homo sapiens), sequence (P41595 whole entry): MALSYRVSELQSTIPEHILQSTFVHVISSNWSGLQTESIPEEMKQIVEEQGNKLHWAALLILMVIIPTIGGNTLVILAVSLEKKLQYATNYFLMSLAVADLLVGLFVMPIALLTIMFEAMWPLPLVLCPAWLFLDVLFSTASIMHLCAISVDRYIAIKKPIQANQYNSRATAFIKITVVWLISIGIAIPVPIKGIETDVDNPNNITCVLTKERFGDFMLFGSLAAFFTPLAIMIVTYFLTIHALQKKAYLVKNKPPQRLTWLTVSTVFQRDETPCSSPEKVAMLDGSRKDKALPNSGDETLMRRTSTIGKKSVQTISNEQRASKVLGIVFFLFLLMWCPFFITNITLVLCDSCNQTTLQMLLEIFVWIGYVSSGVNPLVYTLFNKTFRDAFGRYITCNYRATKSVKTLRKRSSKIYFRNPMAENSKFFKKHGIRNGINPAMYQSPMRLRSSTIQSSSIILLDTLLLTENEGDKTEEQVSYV
Kappa-type opioid receptor, sequence (P41145 whole entry): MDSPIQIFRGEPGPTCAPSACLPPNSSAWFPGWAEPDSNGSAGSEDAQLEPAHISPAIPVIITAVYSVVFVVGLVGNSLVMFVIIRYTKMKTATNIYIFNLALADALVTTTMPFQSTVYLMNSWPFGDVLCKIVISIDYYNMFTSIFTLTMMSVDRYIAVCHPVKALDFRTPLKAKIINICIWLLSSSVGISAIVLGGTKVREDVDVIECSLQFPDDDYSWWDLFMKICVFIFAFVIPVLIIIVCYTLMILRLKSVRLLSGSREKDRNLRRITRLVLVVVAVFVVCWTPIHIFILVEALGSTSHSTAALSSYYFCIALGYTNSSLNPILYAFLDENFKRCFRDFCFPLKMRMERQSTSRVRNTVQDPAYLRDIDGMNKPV
Glucocorticoid receptor (Homo sapiens), sequence (P04150 whole entry): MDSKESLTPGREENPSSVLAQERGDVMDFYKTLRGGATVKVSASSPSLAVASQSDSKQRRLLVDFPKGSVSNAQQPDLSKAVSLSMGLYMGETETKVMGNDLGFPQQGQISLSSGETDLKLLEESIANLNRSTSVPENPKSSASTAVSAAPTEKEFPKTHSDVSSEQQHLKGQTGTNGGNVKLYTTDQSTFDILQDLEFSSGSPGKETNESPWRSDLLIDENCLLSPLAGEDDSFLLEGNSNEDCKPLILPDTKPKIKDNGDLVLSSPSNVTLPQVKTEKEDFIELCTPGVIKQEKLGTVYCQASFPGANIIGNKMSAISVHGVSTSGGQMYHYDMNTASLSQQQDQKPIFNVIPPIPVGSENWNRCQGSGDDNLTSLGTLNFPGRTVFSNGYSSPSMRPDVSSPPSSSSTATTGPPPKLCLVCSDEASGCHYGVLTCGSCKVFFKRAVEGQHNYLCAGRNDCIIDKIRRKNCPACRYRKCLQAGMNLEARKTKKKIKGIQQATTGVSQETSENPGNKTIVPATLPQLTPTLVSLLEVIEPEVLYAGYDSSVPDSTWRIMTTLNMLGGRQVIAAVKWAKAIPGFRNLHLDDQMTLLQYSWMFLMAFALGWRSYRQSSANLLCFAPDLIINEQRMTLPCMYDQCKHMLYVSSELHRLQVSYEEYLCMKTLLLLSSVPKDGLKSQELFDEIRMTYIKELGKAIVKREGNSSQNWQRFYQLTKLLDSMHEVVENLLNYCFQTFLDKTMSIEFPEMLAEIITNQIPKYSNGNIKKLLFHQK
Muscarinic acetylcholine receptor M3 (Homo sapiens), sequence (P20309 whole entry, looked up): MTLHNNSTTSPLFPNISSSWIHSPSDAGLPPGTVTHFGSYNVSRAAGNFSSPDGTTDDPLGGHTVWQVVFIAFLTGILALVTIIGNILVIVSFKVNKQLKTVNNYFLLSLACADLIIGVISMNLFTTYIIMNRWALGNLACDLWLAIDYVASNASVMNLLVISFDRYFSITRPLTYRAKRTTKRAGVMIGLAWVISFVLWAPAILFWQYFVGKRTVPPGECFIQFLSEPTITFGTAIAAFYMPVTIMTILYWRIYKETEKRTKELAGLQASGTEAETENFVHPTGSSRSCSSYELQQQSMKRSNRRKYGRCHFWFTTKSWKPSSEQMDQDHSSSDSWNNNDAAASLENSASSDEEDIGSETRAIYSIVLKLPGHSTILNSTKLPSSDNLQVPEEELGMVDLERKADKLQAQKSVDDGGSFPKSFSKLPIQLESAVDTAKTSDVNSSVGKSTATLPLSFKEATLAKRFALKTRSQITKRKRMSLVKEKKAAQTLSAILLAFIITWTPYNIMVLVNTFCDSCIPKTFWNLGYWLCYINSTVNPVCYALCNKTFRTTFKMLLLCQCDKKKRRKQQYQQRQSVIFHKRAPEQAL

inhibition [9]: 95.9%
inhibition [10]: 5.53%
inhibition [11]: 12.1%
inhibition [14]: 3.5%
inhibition [15]: -5.58%
inhibition (Rattus norvegicus): 12.2%
inhibition [16]: 23.8%
inhibition [19]: -5.56%
inhibition [24]: 13.8%
inhibition [26]: 5.01%
inhibition [31]: 4.96%
inhibition [32]: 12.2%
Compound: CC[C@H](CC(=O)O)n1c(=O)c2ncccc2n(Cc2cn(C)c3cc(C)cc(C)c23)c1=O [BI-1942]
activity at 10 µM (hERG (KCNH2)): 105% (not active)
residual activity [1]: 95%
activity at 10 µM [2]: 86% (not active)
residual activity [3]: 124%
residual activity [4]: 100%
residual activity [5]: 127%
residual activity [6]: 88%
residual activity [7]: 105%
residual activity [8]: 86%
residual activity [12]: 107%
residual activity (Caspase-8 (Homo sapiens)): 88%
residual activity [13]: 111%
residual activity [17]: 90%
residual activity [18]: 114%
residual activity [20]: 103%
residual activity [21]: 129%
residual activity [22]: 98%
residual activity [23]: 113%
residual activity [25]: 112%
residual activity [27]: 134%
residual activity [28]: 106%
residual activity (Caspase-7 (Homo sapiens)): 101%
residual activity [29]: 100%
residual activity [30]: 107%
